Measured values taken from patent US8598339B2, “Withanolide isolated from Physalis longifolia and analogs and methods of use thereof” (University of Kansas, priority 2011, dated 2013).

Columns and labels:
[1] = tested on: melanoma cells B16F10; assay: MTS cell viability assay, B16F10; format: cell-based; settings: Mus musculus, B16-F10, Table 5
Method: (§1) Human carcinoid cells, NCI-H727 (ATCC, Manassas, Va.), were cultured under standard conditions. Squamous cell carcinoma of head and neck cells, MDA1986 (Myers, et al. (2002) Clin. Cancer Res. 8:293) and JMAR (Swan, et al. (2003) Oral Oncol. 39:648-55); and melanoma cells lines B16F10 (ATCC, Manassas, Va.) and SKMEL28 (CLS, Eppelheim, Germany) were cultured in DMEM medium supplemented with 10% heat-inactivated fetal bovine serum (Sigma-Aldrich, St. Louis, Mo.), 1×MEM-essential amino acid, 1×MEM vitamin, and penicillin/streptomycin (Sigma-Aldrich, St. Louis, Mo.) in a humid environment of 5% CO2 at 37° C. Activity of withanolides against DRO81-1 and TT medullary thyroid cancer cells was also determined.
(§2) Cells were cultured in 96 well plates at a concentration of 1-2×10^4 cells/mL. Cell viability was assessed with the nonradioactive cell proliferation MTS assay using Cell Titer 96AQUEOUS One Solution Reagent (PROMEGA, Madison, Wis.), according to the manufacturer's instruction. After a 72-hour treatment, 20 μL of Cell Titer 96AQUEOUS One Solution Reagent were added to each well and incubated for 3 hours at 37° C. 5% CO2, and formazan absorbance was measured at 490 nm.

[2] = tested on: human melanoma SKMEL28 cells; assay: MTS cell viability assay, SKMEL28; format: cell-based; settings: Homo sapiens, SK-MEL-28, Table 5
Method: as §1, §2
A cell viability MTS assay was carried out to determine the anti-cancer effect of the withanolides on human melanoma SKMEL28 cells. Cells were treated for 72 hours and cell viability was determined according to the manufacturer's instruction.

[3] = tested on: squamous cell carcinoma of head and neck cells MDA1986; assay: MTS cell viability assay, MDA1986; format: cell-based; settings: Table 5
Method: as §1, §2

[4] = tested on: squamous cell carcinoma of head and neck cells JMAR; assay: MTS cell viability assay, JMAR; format: cell-based; settings: Table 5
Method: as §1, §2

[5] = tested on: MRC-5; assay: MTS cell viability assay, MRC-5; format: cell-based; settings: Homo sapiens, MRC5, Table 5
[6] = tested on: RET, mTOR, 4E-BP1, P70S6 kinase, akt, pERK in medullary thyroid cancer cells; assay: Mechanistic pathway protein levels in medullary thyroid cancer cells; format: cell-based; settings: for pERK / total and phosphorylated protein levels of RET, mTOR, 4E-BP1, P70S6 kinase: 24 hours, 0.25, 0.5, 1 or 3 μM
Method: Additional analysis of X005, X032 and X033 was carried out in medullary thyroid cancer cells. […] Therefore, this analysis indicates the importance of this double bond in the A-ring to anti-cancer activity.

[7] = tested on: HS766T; assay: Pancreatic cancer cell viability, HS766T; format: cell-based; settings: read-out: IC50
Method: (§3) The activity of the withanolides of this invention were tested in pancreatic cancer cells. […] Moreover, IC50 values were determined for these compounds (Table 14).

[8] = tested on: Mia PaCa-2; assay: Pancreatic cancer cell viability, Mia PaCa-2; format: cell-based; settings: Homo sapiens, MIA PaCa2, read-out: IC50
Method: as §3

[9] = tested on: Ames test strain TA98; assay: Ames test, TA98
[10] = tested on: Ames test strain TA100; assay: Ames test, TA100
[11] = tested on: Ames test strain TA1535; assay: Ames test, TA1535

CO[C@H]1CC(=O)[C@]2(CO)[C@H]3CC[C@]4(C)[C@@H]([C@H](C)[C@H]5CC(C)=C(CO)C(=O)O5)CC[C@H]4[C@@H]3C[C@H]3O[C@]32[C@H]1O [Compound X005]
IC50 [1]: 3.21 µM | IC50 [2]: 9.27 µM | IC50 [3]: > 25 µM | IC50 [4]: 4.69 µM | IC50 [5]: 6.5 µM | RET, mTOR, 4E-BP1, p70S6 kinase and akt levels ([6]; medullary thyroid cancer cells): dose-dependent increase

CC(=O)OC[C@]12C(=O)C=C[C@H](OC(C)=O)[C@]13O[C@@H]3C[C@H]1[C@@H]3CC[C@H]([C@H](C)[C@H]4CC(C)=C(C)C(=O)O4)[C@@]3(C)CC[C@@H]12 [Compound X033]
IC50 [1]: 0.13 µM | IC50 [2]: 0.27 µM | IC50 [3]: 0.11 µM | IC50 [4]: 0.24 µM | IC50 [5]: 0.51 µM | pERK [6]: increased at higher concentrations | total and phosphorylated protein levels of RET, mTOR, 4E-BP1, P70S6 kinase [6]: dose-dependent down-regulation | potency in pathway analysis relative to X001 ([6]; medullary thyroid cancer cells): more potent than X001

CC1=C(COC2OC(CO)C(O)C(O)C2O)C[C@H]([C@@H](C)[C@H]2CC[C@H]3[C@@H]4CC(=O)C5=C(CC[C@@H](O)C5)[C@H]4CC[C@]23C)OC1=O (some centres unmarked) [Compound X014]
IC50 [1]: > 25 µM | IC50 [2]: > 25 µM | IC50 [3]: > 25 µM | IC50 [4]: > 25 µM | IC50 [5]: > 25 µM

CC(=O)OC[C@]12C(=O)C=C[C@H](OC(=O)c3ccc(Cl)cc3)[C@]13O[C@@H]3C[C@H]1[C@@H]3CC[C@H]([C@H](C)[C@H]4CC(C)=C(COC(=O)c5ccc(Cl)cc5)C(=O)O4)[C@@]3(C)CC[C@@H]12 [HFM-JA-400]
IC50 [1]: 9.04 µM | IC50 [2]: > 25 µM | IC50 [3]: > 25 µM | IC50 [4]: > 25 µM | IC50 [5]: 10.8 µM

CC1=C(CO)C(=O)O[C@@H]([C@@H](C)[C@H]2CC[C@H]3[C@@H]4C[C@H]5O[C@]56[C@@H](OC(=O)N(C)C)C=CC(=O)[C@]6(CO)[C@H]4CC[C@]23C)C1 [HFM-JA-403]
IC50 [1]: 0.28 µM | IC50 [2]: 2.31 µM | IC50 [3]: 2.48 µM | IC50 [4]: 0.55 µM | IC50 [5]: 0.69 µM

CC(=O)O[C@H]1C=CC(=O)[C@]2(CO)[C@H]3CC[C@]4(C)[C@@H]([C@H](C)[C@H]5CC(C)=C(C)C(=O)O5)CC[C@H]4[C@@H]3C[C@H]3O[C@]132 [Compound X032]
IC50 [1]: 0.19 µM | IC50 [2]: 0.64 µM | IC50 [3]: 0.49 µM | IC50 [4]: 0.12 µM | IC50 [5]: 0.16 µM | pERK [6]: increased at higher concentrations | total and phosphorylated protein levels of RET, mTOR, 4E-BP1, P70S6 kinase [6]: dose-dependent down-regulation | potency in pathway analysis relative to X001 ([6]; medullary thyroid cancer cells): more potent than X001

CC1=C(COC(=O)c2ccc(Cl)cc2)C(=O)O[C@@H]([C@@H](C)[C@H]2CC[C@H]3[C@@H]4C[C@H]5O[C@]56[C@@H](OC(=O)c5ccc(Cl)cc5)C=CC(=O)[C@]6(CO)[C@H]4CC[C@]23C)C1 [HFM-JA-398B]
IC50 [1]: 10 µM | IC50 [2]: > 25 µM | IC50 [3]: > 25 µM | IC50 [4]: 10.6 µM | IC50 [5]: 7.13 µM

CC1=C(CO)C(=O)O[C@@H]([C@@H](C)[C@H]2CC[C@H]3[C@@H]4C[C@H]5O[C@]56[C@@H](O)[C@@H](OS(=O)(=O)O)CC(=O)[C@]6(CO)[C@H]4CC[C@]23C)C1 [Compound X017]
IC50 [1]: 1.33 µM | IC50 [2]: 4.8 µM | IC50 [3]: 2.02 µM | IC50 [4]: 2.25 µM | IC50 [5]: 3.33 µM | IC50 [7]: 1.8 µM | IC50 [8]: 1.4 µM

CC1=C(CO)C(=O)O[C@@H]([C@@H](C)[C@H]2CC[C@H]3[C@@H]4C[C@H]5O[C@]56[C@@H](OC(=O)c5ccc(Cl)cc5)C=CC(=O)[C@]6(CO)[C@H]4CC[C@]23C)C1 [HFM-JA-398H]
IC50 [1]: 2.35 µM | IC50 [2]: 3.45 µM | IC50 [3]: 6.05 µM | IC50 [4]: 2.61 µM | IC50 [5]: 5.29 µM

CC1=C(CO)C(=O)O[C@@](C)([C@@H](C)[C@H]2CC[C@H]3[C@@H]4CC=C5C[C@@H](OC6OC(CO)C(O)C(O)C6O)CC(=O)[C@]5(CO)[C@H]4CC[C@]23C)C1 (some centres unmarked) [Compound X012]
IC50 [1]: 10.7 µM | IC50 [2]: > 25 µM | IC50 [3]: > 25 µM | IC50 [4]: > 25 µM | IC50 [5]: > 25 µM

CC1=C(COC2OC(CO)C(O)C(O)C2O)C[C@H]([C@@H](C)[C@H]2CC[C@H]3[C@@H]4CC=C5C[C@@H](O)C[C@H](O)[C@]5(CO)[C@H]4CC[C@]23C)OC1=O (some centres unmarked) [Compound X013]
IC50 [1]: > 25 µM | IC50 [2]: > 25 µM | IC50 [3]: > 25 µM | IC50 [4]: > 25 µM | IC50 [5]: > 25 µM

O=c1c(O)c(-c2ccc(O)c(O)c2)oc2cc(O)cc(O)c12 [Quercetin, reference compound]
Positive Significance (− to +++) ([9]; 3.0E−05 M, TA98 +S9): +++ (Very strong positive, if p < 0.001, denoted as “+++”.) | Positive Significance (− to +++) ([9]; 3.0E−05 M, TA98 −S9): +++ (Very strong positive, if p < 0.001, denoted as “+++”.) | Positive Significance (− to +++) ([10]; 3.0E−05 M, TA100 +S9): − | Positive Significance (− to +++) ([10]; 3.0E−05 M, TA100 −S9): − | Positive Significance (− to +++) ([11]; 3.0E−05 M, TA1535 +S9): − | Positive Significance (− to +++) ([11]; 3.0E−05 M, TA1535 −S9): −

CC1=C(C)C(=O)O[C@@H]([C@@H](C)[C@H]2CC[C@H]3[C@@H]4C[C@H]5O[C@]56[C@@H](O)C=CC(=O)[C@]6(CO)[C@H]4CC[C@]23C)C1 [Compound X030B]
IC50 [1]: 0.2 µM | IC50 [2]: 3.91 µM | IC50 [3]: 1.3 µM | IC50 [4]: 0.17 µM | IC50 [5]: 0.4 µM

CN(N=O)C(=O)N[C@H]1C(O)O[C@H](CO)[C@@H](O)[C@@H]1O (mixture of isomers) [Streptoxotocin, reference compound]
Positive Significance (− to +++) ([9]; 2.5E−06 M, TA98 +S9): − | Positive Significance (− to +++) ([9]; 2.5E−06 M, TA98 −S9): − | Positive Significance (− to +++) ([10]; 2.5E−06 M, TA100 +S9): +++ (Very strong positive, if p < 0.001, denoted as “+++”.) | Positive Significance (− to +++) ([10]; 2.5E−06 M, TA100 −S9): +++ (Very strong positive, if p < 0.001, denoted as “+++”.) | Positive Significance (− to +++) ([11]; 2.5E−06 M, TA1535 +S9): ++ (Strong positive, if p < 0.01, denoted as “++”.) | Positive Significance (− to +++) ([11]; 2.5E−06 M, TA1535 −S9): +++ (Very strong positive, if p < 0.001, denoted as “+++”.)

CC1=C(COC2OC(CO)C(O)C(O)C2O)C[C@H]([C@@H](C)[C@H]2CC[C@H]3[C@@H]4CCC5=C(C(=O)C[C@H](O)C5)[C@H]4CC[C@]23C)OC1=O (some centres unmarked) [Compound X026B]
IC50 [1]: 11 µM | IC50 [2]: > 25 µM | IC50 [3]: > 25 µM | IC50 [4]: > 25 µM | IC50 [5]: 13.5 µM

Nc1cccc2cc3ccccc3cc12 [Aminoanthracene, reference compound]
Positive Significance (− to +++) ([9]; 1.0E−05 M, TA98 +S9): +++ (Very strong positive, if p < 0.001, denoted as “+++”.) | Positive Significance (− to +++) ([9]; 1.0E−05 M, TA98 −S9): − | Positive Significance (− to +++) ([10]; 1.0E−05 M, TA100 +S9): +++ (Very strong positive, if p < 0.001, denoted as “+++”.) | Positive Significance (− to +++) ([10]; 1.0E−05 M, TA100 −S9): − | Positive Significance (− to +++) ([11]; 1.0E−05 M, TA1535 +S9): +++ (Very strong positive, if p < 0.001, denoted as “+++”.) | Positive Significance (− to +++) ([11]; 1.0E−05 M, TA1535 −S9): −

CC1=C(COC2OC(CO)C(OC3OC(C)C(O)C(O)C3O)C(O)C2O)C(=O)O[C@@H]([C@@H](C)[C@H]2CC[C@H]3[C@@H]4C[C@H]5O[C@]56[C@@H](O)C=CC(=O)[C@]6(C)[C@H]4CC[C@]23C)C1 (some centres unmarked) [Compound X011]
IC50 [1]: > 25 µM | IC50 [2]: 17.4 µM | IC50 [3]: 8.1 µM | IC50 [4]: 8.24 µM | IC50 [5]: 8.72 µM

CC1=C(CO)C(=O)O[C@@H]([C@@H](C)[C@H]2CC[C@H]3[C@@H]4C[C@H]5O[C@]56[C@@H](O)C=CC(=O)[C@]6(C)[C@H]4[C@@H](O)C[C@]23C)C1 [Compound X004]
IC50 [1]: 0.49 µM | IC50 [2]: 2.99 µM | IC50 [3]: 2.64 µM | IC50 [4]: 0.77 µM | IC50 [5]: 3.6 µM | IC50 [7]: 1.6 µM | IC50 [8]: 1.3 µM
